Consider seven molecules from patent US5216175A, “Antimalarial analogs of artemisinin” (SRI International, priority 1990, dated 1993).

Each structure is given as a SMILES string. ≈ marks a conversion by molar mass, not a printed value. Where two headings read alike, the source gives them in different places.

The conditions of assay [1]: Brossi et al.; cited from earlier work.
In a further assay the test system is P. falciparum. In words: In vitro antimalarial activity / SAR data, clone not stated. The format is cell-based. An excerpt: (§1) The analogs have been segregated arbitrarily here into those compounds in which the tetracyclic skeleton is intact (Table 2) and various ring-cleaved analogs (Table 3). The activities of the conventional malaria therapeutics chloroquine, mefloquine, and pyrimethamine is included for comparison.

The next assay relates to P. falciparum D-6 clone. In words: In vitro antimalarial activity, P. falciparum D-6 clone. The format is cell-based. Conditions: for IC50: Plasmodium falciparum.
Text: as §1

The subject of the next assay is P. falciparum W-2 clone. In words: In vitro antimalarial activity, P. falciparum W-2 clone. The class given is cell-based. Conditions: for IC50: Plasmodium falciparum.
Text: as §1

The mark [2] stands for this setting: Table 3, tricyclic analogs, D-6 clone, read-out: In vitro IC50 D-6 clone.
Setting [3] is: Table 3, tricyclic analogs, D-6 clone.
Setting [4] is: Table 3, tricyclic analogs, W-2 clone, read-out: In vitro IC50 W-2 clone.
Setting [5] is: Table 3, tricyclic analogs, W-2 clone.
The mark [6] stands for this setting: Table 2, D-6 clone, drug-resistant strains of P. falciparum, read-out: IC50 D-6 clone.
[7] abbreviates: Table 2, D-6 clone, drawing 57 (artemisinin) = 100.
Where [8] appears, read: Table 2, W-2 clone, drug-resistant strains of P. falciparum, read-out: IC50 W-2 clone.
Where [9] appears, read: Table 2, W-2 clone, drawing 57 (artemisinin) = 100.

In the case of `CCO[C@H]1O[C@@H]2O[C@@]3(C)CC[C@H]4[C@H](C)CC[C@@H]([C@H]1C)[C@@]24OO3` [arteether], the “potency relative to artemisinin (12)” value in assay [1] is “higher potency”.

As a reminder, the IC50 is the concentration that gives 50% inhibition. Turning to `C[C@H]1C(=O)O[C@@H]2OC(C)(C)OO[C@@]23CCCC[C@@H]13` (relative stereo) [compound 4582], the “activity relative to 12” value with P. falciparum (of the activity of 12 (artemisinin), clone not stated) was “about 20%”. In addition, the IC50 amounted to 0.0222 µg/mL (≈ 0.0867 µM) in the assay with P. falciparum D-6 clone (setting [2]) and 0.0381 µg/mL (≈ 0.149 µM) with P. falciparum W-2 clone (setting [4]). Moreover, the “Relative potency (D-6 clone)” value with P. falciparum D-6 clone (setting [3]) came out at 20. Besides, the “Relative potency (W-2 clone)” value with P. falciparum W-2 clone (setting [5]) is 6.

With `CCC1(CC)OO[C@]23CCCC[C@H]2[C@@H](C)C(=O)O[C@@H]3O1` (relative stereo) [compound 52], the “activity change by additional alkyl groups in the vicinity of the peroxy group” value with P. falciparum (24 versus 52) is “reduced activity substantially”.

As to `C[C@H]1[C@@H](OOC(C)(C)C)O[C@@H]2O[C@@]3(C)CC[C@H]4[C@H](C)CC[C@@H]1[C@@]24OO3` [compound 4588], the IC50 came out at 0.00053 µg/mL (≈ 0.00149 µM) in the assay with P. falciparum D-6 clone (setting [6]) and 0.00041 µg/mL (≈ 0.00115 µM) in the assay with P. falciparum W-2 clone (setting [8]). For the same molecule, in the assay with P. falciparum D-6 clone (setting [7]), the “Relative potency (D-6 clone)” value came to 1054. Also, the “Relative potency (W-2 clone)” value in the assay with P. falciparum W-2 clone (setting [9]) came to 656.

As to `CCCC[C@H]1C(=O)O[C@@H]2OC(C)(C)OO[C@@]23CCCC[C@@H]13` (relative stereo) [compound 4590, 7-Butyl-3,3-dimethyl-4aH,6H-hexahydro-1,2,4-trioxino[6.5-j] benzopyran-6-one], the IC50 is 0.0139 µg/mL (≈ 0.0468 µM) in the assay with P. falciparum D-6 clone (setting [2]) and 0.0118 µg/mL (≈ 0.0395 µM) in the assay on P. falciparum W-2 clone (setting [4]). Further, in the assay on P. falciparum D-6 clone (setting [3]), the “Relative potency (D-6 clone)” value is given as 5. The “Relative potency (W-2 clone)” value with P. falciparum W-2 clone (setting [5]) came out at 7.

As for `CC1C(=O)OC(O[Si](C)(C)C(C)(C)C)C2(OO)CCCCC12` (centres unmarked) [compound 4581], the values for the IC50 in the assay on P. falciparum D-6 clone (read-out: In vitro IC50 D-6 clone) and with P. falciparum W-2 clone (read-out: In vitro IC50 W-2 clone) were 3.02 µg/mL (≈ 9.13 µM) and 2.89 µg/mL (≈ 8.75 µM), respectively. In addition, the “Relative potency (D-6 clone)” value with P. falciparum D-6 clone (setting [3]) came out at 0. Further, in the assay with P. falciparum W-2 clone (setting [5]), the “Relative potency (W-2 clone)” value came out at 0.

In the case of `CC(C)[C@H]1C(=O)O[C@@H]2O[C@@]3(C)CC[C@H]4[C@H](C)CC[C@@H]1[C@@]24OO3` [compound 2820], the results for the IC50 with P. falciparum D-6 clone (setting [6]) and with P. falciparum W-2 clone (setting [8]) were 0.00027 µg/mL (≈ 0.00087 µM) and 0.00058 µg/mL (≈ 0.00187 µM), respectively. The “Relative potency (D-6 clone)” value in the assay on P. falciparum D-6 clone (setting [7]) was 203. Moreover, the “Relative potency (W-2 clone)” value with P. falciparum W-2 clone (setting [9]) turned out to be 84.
